The NIST ThermoML archive (doi:10.1021/acs.jced.6b00517)

How the values were obtained:
[1] = Liquid; for mass density: 298.15 K, 101.3 kPa, Vibrating tube method; for vapor or sublimation pressure: Ebulliometric method (Recirculating still)
[2] = Boiling temperature at pressure P; conditions: 101.3 kPa; Liquid; Ebulliometric method (Recirculating still)
[3] = refractive index (Na D-line) (dimensionless); conditions: 298.15 K; 101.3 kPa; Liquid; Standard Abbe refractometry

CO [methanol]
Conditions	Boiling temperature at pressure P [°C]	mass density [kg/m3]	refractive index
[1]	–	786.61	–
[2]	64.68	–	–
[3]	–	–	1.3266

[1]
Conditions	vapor or sublimation pressure [kPa]
315.78 K	40
328.56 K	70
337.33 K	100

CCCCO [butan-1-ol]
Conditions	mass density [kg/m3]	refractive index
[1]	805.94	–
[3]	–	1.3971

[1]
Conditions	vapor or sublimation pressure [kPa]
367.03 K	40
381.07 K	70

CCCCOC(=O)OCCCC [dibutyl carbonate]
Conditions	Boiling temperature at pressure P [°C]	mass density [kg/m3]	refractive index
[1]	–	925.17	–
[2]	204.50	–	–
[3]	–	–	1.4115

[1]
Conditions	vapor or sublimation pressure [kPa]
383.16 K	5
403.77 K	10
410.07 K	15
420.73 K	20
427.86 K	25
434.15 K	30
439.03 K	35
443.67 K	40
443.78 K	40
449.33 K	45
453.17 K	50
456.63 K	55
459.47 K	60
461.31 K	65
463.87 K	70
464.01 K	70
465.41 K	75
468.56 K	80
470.27 K	85
472.83 K	90
475.91 K	95
478.02 K	100
478.18 K	100
